Reference: PubChem BioAssay (NCI)
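Five concentrations, 48 hours, 96-well plates. Definition used: TGI = concentration required for complete inhibition of growth.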

Legend:
Experiment in all cases: NCI anticancer screen, dose series, 48 h
[1] = system: HOP-92 NSCLC
[2] = system: OVCAR-3 ovarian
[3] = system: COLO 205 colon
[4] = system: SK-MEL-5 melanoma
[5] = system: SNB-19 CNS
[6] = system: CAKI-1 renal
[7] = system: SR leukemia
[8] = system: A549 NSCLC
[9] = system: MDA-MB-435
[10] = system: A498 renal
[11] = system: HOP-62 NSCLC
[12] = system: CCRF-CEM leukemia
[13] = system: EKVX NSCLC
[14] = system: SF-268 CNS
[15] = system: HCC-2998 colon
[16] = system: BT-549 breast
[17] = system: SK-OV-3 ovarian
[18] = system: PC-3 prostate
[19] = system: RXF 393 renal
[20] = system: NCI-H226 lung
[21] = system: TK-10 renal
[22] = system: OVCAR-8 ovarian
[23] = system: UACC-62 melanoma
[24] = system: MDA-N
[25] = system: SN12C renal
[26] = system: U251 CNS
[27] = system: SW-620 colon
[28] = system: OVCAR-4 ovarian
[29] = system: KM12 colon
[30] = system: RPMI-8226 leukemia
[31] = system: SF-295 CNS
[32] = system: NCI-H522 lung
[33] = system: HT29 colon
[34] = system: SK-MEL-28 melanoma
[35] = system: K-562 leukemia
[36] = system: MCF7 breast
[37] = system: HCT-116 colon
[38] = system: UO-31 renal
[39] = system: HL-60(TB) leukemia
[40] = system: MOLT-4 leukemia
[41] = system: 786-0 renal
[42] = system: ACHN renal
[43] = system: SF-539 CNS
[44] = system: OVCAR-5 ovarian
[45] = system: NCI-H23 lung
[46] = system: SNB-75 CNS
[47] = system: DU-145 prostate
[48] = system: MDA-MB-231 breast
[49] = system: IGROV1 ovarian
[50] = system: T-47D breast
[51] = system: M14 melanoma
[52] = system: UACC-257 melanoma
[53] = system: NCI/ADR-RES ovarian
[54] = system: SK-MEL-2 melanoma
[55] = system: LOX IMVI melanoma
[56] = system: MALME-3M melanoma
[57] = system: NCI-H460 lung
[58] = system: HCT-15 colon

CC(C)(Br)C(Br)CCC1(C(Br)CBr)CO1 (centres undefined)
TGI [1]: > 10 µM
TGI [2]: > 10 µM
TGI [3]: > 10 µM
TGI [4]: > 10 µM
TGI [5]: > 10 µM
TGI [6]: > 10 µM
TGI [7]: > 10 µM
TGI [8]: > 10 µM
TGI [9]: > 10 µM
TGI [10]: > 10 µM
TGI [11]: > 10 µM
TGI [12]: > 10 µM
TGI [13]: > 10 µM
TGI [14]: > 10 µM
TGI [15]: > 10 µM
TGI [16]: > 10 µM
TGI [17]: > 10 µM
TGI [18]: > 10 µM
TGI [19]: > 10 µM
TGI [20]: > 10 µM
TGI [21]: > 10 µM
TGI [22]: > 10 µM
TGI [23]: > 10 µM
TGI [24]: > 10 µM
TGI [25]: > 10 µM
TGI [26]: > 10 µM
TGI [27]: > 10 µM
TGI [28]: > 10 µM
TGI [29]: > 10 µM
TGI [30]: > 10 µM
TGI [31]: > 10 µM
TGI [32]: > 10 µM
TGI [33]: > 10 µM
TGI [34]: > 10 µM
TGI [35]: > 10 µM
TGI [36]: > 10 µM
TGI [37]: > 10 µM
TGI [38]: > 10 µM
TGI [39]: > 10 µM
TGI [40]: > 10 µM
TGI [41]: > 10 µM
TGI [42]: > 10 µM
TGI [43]: > 10 µM
TGI [44]: > 10 µM
TGI [45]: > 10 µM
TGI [46]: > 10 µM
TGI [47]: > 10 µM
TGI [48]: > 10 µM
TGI [49]: > 10 µM
TGI [50]: > 10 µM
TGI [51]: > 10 µM

O=C(O)c1cccc(SSc2cccc(C(=O)O)c2)c1
TGI [1]: > 100 µM
TGI [2]: > 100 µM
TGI [52]: > 100 µM
TGI [3]: > 100 µM
TGI [53]: > 100 µM
TGI [54]: > 100 µM
TGI [4]: > 100 µM
TGI [5]: > 100 µM
TGI [55]: > 100 µM
TGI [6]: > 100 µM
TGI [7]: > 100 µM
TGI [8]: > 100 µM
TGI [9]: > 100 µM
TGI [10]: > 100 µM
TGI [56]: > 100 µM
TGI [11]: > 100 µM
TGI [12]: 81 µM
TGI [13]: > 100 µM
TGI [14]: > 100 µM
TGI [16]: > 100 µM
TGI [17]: > 100 µM
TGI [18]: > 100 µM
TGI [19]: > 100 µM
TGI [20]: > 100 µM
TGI [21]: > 100 µM
TGI [22]: > 100 µM
TGI [23]: > 100 µM
TGI [24]: > 100 µM
TGI [25]: > 100 µM
TGI [26]: > 100 µM
TGI [27]: > 100 µM
TGI [57]: > 100 µM
TGI [28]: > 100 µM
TGI [29]: > 100 µM
TGI [30]: > 100 µM
TGI [31]: > 100 µM
TGI [32]: > 100 µM
TGI [33]: > 100 µM
TGI [34]: > 100 µM
TGI [35]: > 100 µM
TGI [37]: > 100 µM
TGI [38]: > 100 µM
TGI [39]: > 100 µM
TGI [40]: > 100 µM
TGI [41]: > 100 µM
TGI [42]: > 100 µM
TGI [43]: > 100 µM
TGI [44]: > 100 µM
TGI [45]: > 100 µM
TGI [46]: > 100 µM
TGI [47]: > 100 µM
TGI [48]: > 100 µM
TGI [49]: > 100 µM
TGI [50]: > 100 µM
TGI [58]: > 100 µM
TGI [51]: > 100 µM

Fc1cccc(F)c1C1SCc2nc3cc4ccccc4cc3n21 (centres undefined)
TGI [1]: 69.2 µM
TGI [2]: 36.6 µM
TGI [52]: > 100 µM
TGI [3]: > 100 µM
TGI [53]: > 100 µM
TGI [54]: > 100 µM
TGI [4]: > 100 µM
TGI [55]: > 100 µM
TGI [6]: > 100 µM
TGI [7]: > 100 µM
TGI [8]: > 100 µM
TGI [9]: > 100 µM
TGI [10]: 67.3 µM
TGI [56]: > 100 µM
TGI [11]: > 100 µM
TGI [12]: 62.4 µM
TGI [13]: > 100 µM
TGI [14]: > 100 µM
TGI [15]: 54.1 µM
TGI [16]: > 100 µM
TGI [17]: > 100 µM
TGI [18]: > 100 µM
TGI [19]: > 100 µM
TGI [20]: > 100 µM
TGI [21]: > 100 µM
TGI [22]: > 100 µM
TGI [23]: > 100 µM
TGI [24]: > 100 µM
TGI [25]: > 100 µM
TGI [26]: > 100 µM
TGI [27]: > 100 µM
TGI [28]: 36.7 µM
TGI [29]: > 100 µM
TGI [30]: 73.7 µM
TGI [31]: > 100 µM
TGI [33]: 80.3 µM
TGI [34]: > 100 µM
TGI [35]: 48.6 µM
TGI [36]: > 100 µM
TGI [37]: > 100 µM
TGI [40]: 81.5 µM
TGI [41]: > 100 µM
TGI [43]: 45.1 µM
TGI [44]: > 100 µM
TGI [45]: > 100 µM
TGI [46]: 72.3 µM
TGI [47]: > 100 µM
TGI [48]: > 100 µM
TGI [49]: 72.9 µM
TGI [50]: > 100 µM
TGI [58]: 55 µM
TGI [51]: > 100 µM
